{"source": "patent US10577349B2", "about": "(Sanford Burnham Prebys Medical Discovery Institute, priority 2015, dated 2020)", "key": {"[1]": {"assay": "Aqueous Solubility in pION's buffer", "assay_type": "physicochemical"}, "[2]": {"system": "UACC903 and WM1346 cell lines", "assay": "Reverse phase protein array analysis (RPPA), average of both cell lines", "assay_type": "cell-based, human", "description": "UACC903 and WM1346 cells were treated with DMSO (controls) or 1 μM Compound 38 for 24 h in triplicate. Cells were lysed with lysis buffer (1% Triton X-100, 50 mM HEPES, pH 7.4, 150 mM NaCl, 1.5 mM MgCl2, 1 mM EGTA, 100 mM NaF, 10 mM Na pyrophosphate, 1 mM Na3VO4, 10% glycerol, with freshly added protease and phosphatase inhibitors) and centrifuged at 13,000 g for 20 minutes. Denatured protein lysates containing the same amount of protein were then subjected to RPPA analysis at the RPPA Core Facility, Md. Anderson Cancer Center, as previously described (Tibes. R., et al. Reverse phase protein array: validation of a novel proteomic technology and utility for analysis of primary leukemia specimens and hematopoietic stem cells. Molecular cancer therapeutics 5, 2512-2521 (2006)),\nA reverse phase protein array (RPPA) analysis of BRAF- and NRAS-mutant melanomas was performed to identify protein networks affected by Compound 38 (Table 4)."}, "eIF4F complex": {"target": "T1, eIF4F complex (Homo sapiens, UniProt Q04637)", "T1 construct": "PLX4032), or Compound 38; endogenous in cells; host or cells: A375, A375R, Lu1205R, WM793R melanoma cells", "assay": "m7GTP pull-down assay, UACC903 melanoma cells", "assay_type": "cell-based", "description": "As previously described (Dowling R J, et al. mTORC1-mediated cell proliferation, but not cell growth, controlled by the 4E-BPs. Science. 2010; 328:1172-6), cells growing in 100 mm plates were washed (cold PBS), collected, and lysed in 50 mM MOPS/KOH (7.4), 100 mM NaCl, 50 mM NaF, 2 mM EDTA, 2 mM EGTA, 1% NP40, 1% Na-DOC, 7 mM β-mercaptoethanol, protease inhibitors and phosphatase inhibitor cocktail (Roche). Lysates were incubated with m7-GDP-agarose beads (Jena Bioscience) for 20 minutes, washed 4 times with the washing buffer containing 50 mM MOPS/KOH (7.4), 100 mM NaCl, 50 mM NaF, 0.5 mM EDTA, 0.5 mM EGTA, 7 mM (3-mercaptoethanol, 0.5 mM PMSF, 1 mM Na3VO4 and 0.1 mM GTP, and bound proteins were eluted by boiling the beads in loading buffer. m7-GDP-agarose pulled down material was analyzed by Western blot analysis.\nThe dissociation of eIF4G1 from the eIF4F complex was determined using m^7GTP-agarose pull-down, which captures the eIF4F complex. […] Proteins prepared from UACC903 melanoma cells were treated with indicated Compound 38 concentrations and incubated with m^7GTP-agarose beads to capture the eIF4F complex. Shown is dose-dependent inhibition of eIF4G1 binding to eIF4E, concomitant with increased binding of inhibitory 4E-BP1 to eIF4E. Bottom, the total cell lysate."}, "A375 tumors": {"system": "A375 tumors", "assay": "A375 xenograft in nude mice", "assay_type": "in vivo", "description": "All animal studies were conducted in the SBMRI Animal Facility in accordance with the Institutional Animal Care and Use Committee guidelines. Six-week-old female nu/nu mice were purchased Harlan Laboratories (Indianapolis, Ind.) and allowed to acclimatize for 1 week. A375 cells (1×10^6, suspended in 200 μL sterile PBS) were injected into subcutaneous flank tissue. When the xenograft size reached ˜250 mm^3, mice were sorted into different groups. For PLX4720 and Compound 38 combination experiments, mice were either fed PLX4720-containing chow alone (AIN76A Roden Diet with 417 mg PLX4720/kg from Open Source Diets) for the control group or PLX4 720-containing chow plus an IP injection of 1 mg/kg Compound 38 twice a week. For MEKi plus Compound 38 experiments, PD0325901 at 20 mg/kg (formulated in 0.5% hydroxypropyl methylcellulose plus 0.2% Tween-80) was administered by oral gavage twice a week (Monday and Thursday) for the control group, or PD035901 plus IP injection of 1 mg/kg Compound 38 was administered twice a week (Tuesday and Friday). Mice were maintained in a pathogen-free environment with free access to food. Body weight and tumor volume were measured twice a week. Tumor size was measured with linear calipers and calculated using the formula: ([length in millimeters×(width in millimeters)2]/2). Mice were sacrificed after 4 weeks and tumors were fixed in Z-Fix (Anatech, Battle Creek, Mich.) and embedded in paraffin for immunohistochemistry.\nA375 human melanomacells were injected subcutaneously (1×10^6) into the flank of nude mice and allowed to form established tumors. Once tumors reached approximately 250 mm3, mice were randomly grouped and subjected to the indicated treatments [chow containing PLX4720 (417 mg/kg) and/or Compound 38 (1 mg/kg, 2 times per week intraperitoneally)]. Tumor size was measured at the indicated time points. The experiment was repeated twice. […] When tumors were allowed to reach 500 mm^3 before initiating treatment, 5 of 7 […] mice subjected to BRAFi treatment alone relapsed as drug-resistant tumors (4/5 within 4-6 weeks), whereas only 3 of 6 (50%) subjected to combination treatment developed resistance, albeit more slowly (2/3 after 8 weeks; FIG. 22). […] Proteins prepared at the indicated times from A375 tumors that were subjected in vivo to treatment with Compound 38 were incubated with m^7GTP-beads to capture the eIF4F complex. Shown is time-dependent inhibition of eIF4G1 binding to eIF4E in vivo, concomitant with increased binding of inhibitory 4E-BP1 to eIF4E."}}, "note": "Like-named read-outs stand apart in the source and are kept apart here."}
{"smiles": "O=C(/C=C/c1cncc(F)c1)c1c(-c2ccccc2)c2cc(Cl)ccc2[nH]c1=O", "note": "[Compound 38, 6-Chloro-3-[3-(5-fluoro-pyridin-3-yl)-acryloyl]-4-phenyl-1H-quinolin-2-one]", "values": [{"measurement": "solubility", "setting": "[1]; aqueous buffer, pH 5.0, read-out: Aqueous Solubility in pION's buffer pH 5.0", "result": 6.5, "unit": "µg/mL"}, {"measurement": "solubility", "setting": "[1]; pH 6.2, aqueous buffer, read-out: Aqueous Solubility in pION's buffer pH 6.2", "result": 6.6, "unit": "µg/mL"}, {"measurement": "solubility", "setting": "[1]; pH 7.4, aqueous buffer, read-out: Aqueous Solubility in pION's buffer pH 7.4", "result": 5.5, "unit": "µg/mL"}, {"measurement": "Ratio [Compound 38/DMSO] A-Raf, Average", "setting": "[2]", "result": 0.9}, {"measurement": "Ratio [Compound 38/DMSO] AR, Average", "setting": "[2]", "result": 0.82}, {"measurement": "Ratio [Compound 38/DMSO] ATM, Average", "setting": "[2]", "result": 0.81}, {"measurement": "Ratio [Compound 38/DMSO] ATR, Average", "setting": "[2]", "result": 0.80}, {"measurement": "Ratio [Compound 38/DMSO] BRCA2, Average", "setting": "[2]", "result": 0.93}, {"measurement": "Ratio [Compound 38/DMSO] C-Raf, Average", "setting": "[2]", "result": 0.92}, {"measurement": "Ratio [Compound 38/DMSO] Chk1, Average", "setting": "[2]", "result": 0.91}, {"measurement": "Ratio [Compound 38/DMSO] Ets-1, Average", "setting": "[2]", "result": 0.92}, {"measurement": "Ratio [Compound 38/DMSO] GCN5L2, Average", "setting": "[2]", "result": 0.87}, {"measurement": "Ratio [Compound 38/DMSO] INPP4b, Average", "setting": "[2]", "result": 0.9}, {"measurement": "Ratio [Compound 38/DMSO] MSH6, Average", "setting": "[2]", "result": 0.77}, {"measurement": "Ratio [Compound 38/DMSO] PI3K-p85, Average", "setting": "[2]", "result": 0.95}, {"measurement": "Ratio [Compound 38/DMSO] PI3K-p110-alpha, Average", "setting": "[2]", "result": 0.95}, {"measurement": "Ratio [Compound 38/DMSO] Rad51, Average", "setting": "[2]", "result": 0.85}, {"measurement": "Ratio [Compound 38/DMSO] Raptor, Average", "setting": "[2]", "result": 0.86}, {"measurement": "Ratio [Compound 38/DMSO] Rictor_pT1135, Average", "setting": "[2]", "result": 0.87}, {"measurement": "Ratio [Compound 38/DMSO] S6_pS235_S236, Average", "setting": "[2]", "result": 0.67}, {"measurement": "Ratio [Compound 38/DMSO] S6_pS240_S244, Average", "setting": "[2]", "result": 0.63}, {"measurement": "Ratio [Compound 38/DMSO] Stat5a, Average", "setting": "[2]", "result": 0.76}, {"measurement": "Ratio [Compound 38/DMSO] Tuberin, Average", "setting": "[2]", "result": 0.65}, {"measurement": "Ratio [Compound 38/DMSO] YB1, Average", "setting": "[2]", "result": 0.73}, {"measurement": "Ratio [Compound 38/DMSO] c-Kit, Average", "setting": "[2]", "result": 0.90}, {"measurement": "Ratio [Compound 38/DMSO] c-Myc, Average", "setting": "[2]", "result": 0.76}, {"measurement": "Ratio [Compound 38/DMSO] mTOR, Average", "setting": "[2]", "result": 0.80}, {"measurement": "Ratio [Compound 38/DMSO] mTOR_pS2448, Average", "setting": "[2]", "result": 0.74}, {"measurement": "Ratio [Compound 38/DMSO] p70-S6K_pT389, Average", "setting": "[2]", "result": 0.81}, {"measurement": "dissociation of eIF4G1 from the eIF4F complex (m7GTP-agarose pull-down)", "setting": "eIF4F complex", "result": "dissociated eIF4G1 from the eIF4E in a dose-dependent manner"}, {"measurement": "effect on the eIF4F complex in vivo (m7GTP-beads)", "setting": "A375 tumors; A375 tumors, treatment with both BRAFi and Compound 38, up to 8 hours", "result": "time-dependent disruption of the eIF4F complex"}, {"measurement": "Growth of established tumors (~250 mm^3), combination of BRAFi plus Compound 38", "setting": "A375 tumors; PLX4720 chow plus Compound 38 1 mg/kg, 2 times per week intraperitoneally", "result": "largely inhibited"}, {"measurement": "Tumors seen in mice treated with the drug combination", "setting": "A375 tumors; treatment started at ~250 mm^3, PLX4720 chow plus Compound 38 1 mg/kg IP", "result": "0/4"}]}
